In article PMC5402281, “Functional, thermodynamics, structural and biological studies of in silico-identified inhibitors of Mycobacterium tuberculosis enoyl-ACP(CoA) reductase enzyme” (Scientific Reports, 2017):
≈ marks a conversion by molar mass, not a printed value.

Tested on: M. tuberculosis PE-003 multidrug-resistant clinical isolate
Assay: microbe, parasite or virus in culture
Format: cell-based
Conditions: Mycobacterium tuberculosis, read-out: MIC PE-003 in μM

SMILES | MIC
Cc1ccccc1OCc1nc(-c2ccc(NC(=O)c3cccs3)cc2)no1 [Labio_16] | 1.5 µM (≈ 0.587 µg/mL)
CCOC(=O)c1ccc2nc(C)cc(Nc3ccc(N4CCCCC4)cc3)c2c1 [Labio_17] | 2.5 µM (≈ 0.974 µg/mL)
